Test results reported in patent US20260159534A1, “NOVEL CRYSTAL FORMS OF PEPTIDE BORIC ACID COMPOUND AND PREPARATION METHODS THEREFOR” (JIANGSU CHUANGTE PHARMACEUTICAL TECHNOLOGY CO., LTD., priority 2021, published 2026).
Values after ≈ are worked out from the molar mass of the structure shown.

Assays:
Format in all cases: physicochemical
[1] = Stability influence factor tests (high temperature, high humidity, illumination); conditions: for Stability during the 10 days of examination (in words): high temperature, high humidity, illumination
Method: Four crystal samples produced, namely the eutectic sample and the crystal form A sample of Example 1, the crystal form B sample of Example 2, and the crystal form D sample of Example 3, were each subjected the stability influence factor tests under high temperature (60° C., in the dark), high humidity (relative humidity of 90%[…], in the dark), and illumination (4500 lx±500 lx), and sampling was carried out to on day 0, day 5 day, and day 10 for […] determination, and the results are shown in Table 4 below.

[2] = Kinetic solubility determination in ultra-pure water; conditions: upper limit 1000 μg/mL
Text: (§1) Four crystal samples produced, namely the eutectic sample and the crystal form A sample of Example 1, the crystal form B sample of Example 2, and the crystal form D sample of Example 3, were subjected to solubility tests and a kinetic solubility determination tests in ultra-pure water, and the solubility results are shown in Tables 1 and 2.

[3] = Hygroscopicity test (dynamic vapor sorption); conditions: 25° C.; for Hygroscopicity comparison (in words) / Hygroscopicity: 0-80% RH; for Weight change in the range of 0% RH to 80% RH: dynamic vapor sorption
Method: Four crystal samples produced, namely the eutectic sample and the crystal form A sample of Example 1, the crystal form B sample of Example 2, and the crystal form D sample of Example 3, were subjected to hygroscopicity tests at 25° C. under a changing relative humidity of 0-80% RH.

[4] = Solubility test in ultra-pure water; conditions: for Solubility property (in words): solubility and kinetic solubility; for Solubility: upper limit 300 μg/mL
Text: as §1

[5] = 5 d, high humidity (relative humidity of 90%±50, in the dark)
[6] = 5 d, high temperature (60° C., in the dark)
[7] = 5 d, illumination (4500 lx±500 lx)
[8] = 10 d, high humidity (relative humidity of 90%±50, in the dark)
[9] = 10 d, high temperature (60° C., in the dark)
[10] = 10 d, illumination (4500 lx±500 lx)

Compound	Stability results (content) ([1]; 0 h)	Stability results (content) [1, 5]	Stability results (content) [1, 6]	Stability results (content) [1, 7]	Stability results (content) [1, 8]	Stability results (content) [1, 9]	Stability results (content) [1, 10]	Stability during the 10 days of examination (in words) [1]	Kinetic solubility [2]	Hygroscopicity comparison (in words) [3]	Weight change in the range of 0% RH to 80% RH [3]	Solubility property (in words) [4]	Solubility [4]	Hygroscopicity [3]
CSC[C@H](NC(=O)c1cc(Cl)ccc1Cl)C(=O)N[C@@H](CC(C)C)B1OCCNCCO1 [Crystal form A of Example 1, N—((R)-1-(((R)-1-(1,3,6,2-dioxazaborolan-2-yl)-3-methylbutyl)amino)-3-(methylthio)-1-oxoprop-2-yl)-2,5-dichlorobenzamide]	99.01%	99.24%	98.97%	98.61%	99.23%	99.22%	98.90%	no significant content change	958.47 µg/mL	weaker hygroscopicity compared with the crystal form D	1.4%	excellent solubility property	318.09 µg/mL (≈ 649 µM)	
CSC[C@H](NC(=O)c1cc(Cl)ccc1Cl)C(=O)N[C@@H](CC(C)C)B1OCCNCCO1 [Crystal form B of Example 2, N—((R)-1-(((R)-1-(1,3,6,2-dioxazaborolan-2-yl)-3-methylbutyl)amino)-3-(methylthio)-1-oxoprop-2-yl)-2,5-dichlorobenzamide]	99.16%	98.41%	98.92%	99.22%	99.08%	99.25%	99.11%	no significant content change	1078.59 µg/mL	weaker hygroscopicity compared with the crystal form D	Less than 0.2%	excellent solubility property	302.80 µg/mL (≈ 618 µM)	Nonhygroscopic
CSC[C@H](NC(=O)c1cc(Cl)ccc1Cl)C(=O)N[C@@H](CC(C)C)B1OCCNCCO1 [Crystal form D of Example 3, N—((R)-1-(((R)-1-(1,3,6,2-dioxazaborolan-2-yl)-3-methylbutyl)amino)-3-(methylthio)-1-oxoprop-2-yl)-2,5-dichlorobenzamide]	98.05%	97.88%	97.68%	98.07%	98.39%	98.52%	98.49%	no significant content change	902.91 µg/mL		2.4%	excellent solubility property	304.21 µg/mL (≈ 621 µM)	Deliquescent
N—((R)-1-(((R)-1-(1,3,6,2-dioxazaborolan-2-yl)-3-methylbutyl)amino)-3-(methylthio)-1-oxoprop-2-yl)-2,5-dichlorobenzamide [White eutectic solid of Example 1]	98.10%				93.18%	97.49%	98.06%	unstable	948.16 µg/mL		2.1%	excellent solubility property	310.12 µg/mL	Deliquescent
